Results from PMC7652251, “Anti-aging Effects of Mangosteen Peel Extract and Its Phytochemical Compounds: Antioxidant Activity, Enzyme Inhibition and Molecular Docking Simulation” (Tropical Life Sciences Research, 2020).
pIC50: −log10 of the molar value.

What was measured:
[1] = target: T1, bovine testes hyaluronidase type I-S (Bos taurus, UniProt F1MTV1); assay: turbidity […] nm, hyaluronic acid with acidic albumin; assay type: biochemical; conditions: phosphate 300 mM pH 5.35, 37°C, 45 min
T1 construct: gene SPAM1; native enzyme from bovine testes, commercial
T1 sequence (F1MTV1 36-553): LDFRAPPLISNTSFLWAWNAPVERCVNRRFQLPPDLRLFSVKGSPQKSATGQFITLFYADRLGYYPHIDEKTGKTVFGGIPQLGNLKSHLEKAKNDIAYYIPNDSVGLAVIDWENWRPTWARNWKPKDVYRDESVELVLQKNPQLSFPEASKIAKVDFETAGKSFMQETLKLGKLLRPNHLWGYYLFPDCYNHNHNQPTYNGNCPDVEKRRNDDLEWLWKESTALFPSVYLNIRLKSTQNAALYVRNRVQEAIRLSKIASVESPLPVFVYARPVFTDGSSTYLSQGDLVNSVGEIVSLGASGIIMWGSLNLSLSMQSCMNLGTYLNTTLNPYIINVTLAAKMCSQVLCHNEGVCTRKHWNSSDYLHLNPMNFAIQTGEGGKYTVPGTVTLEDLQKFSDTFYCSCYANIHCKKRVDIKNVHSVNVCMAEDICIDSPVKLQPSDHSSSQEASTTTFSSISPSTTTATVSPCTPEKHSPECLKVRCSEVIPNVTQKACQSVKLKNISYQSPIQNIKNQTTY

[2] = target: T2, porcine pancreas elastase (Sus scrofa, UniProt P00772); assay: absorbance […] nm, p-nitroanilide release; assay type: biochemical
T2 construct: gene CELA1; native enzyme from porcine pancreas, commercial

mushroom tyrosinase = target: T3, mushroom tyrosinase; assay: absorbance […] nm, L-DOPA oxidation; assay type: biochemical; conditions: L-DOPA 1.5 mM stock (20 μL added), potassium phosphate 20 mM pH 6.8, room temperature, 15 min pre-incubation
T3 construct: gene PPO1; PPO3 (2Y9X) is only the docking model

[3] = target: T4, Collagenase from Clostridium histolyticum; assay: absorbance […] nm, FALGPA hydrolysis; assay type: biochemical, Hathewaya histolytica; conditions: N-[3-(2-furyl)acryloyl]-Leu-Gly-Pro-Ala 1 mM, Tricine 50 mM pH 7.5, 37°C, 20 min pre-incubation
T4 construct: gene colG

T2 sequence (P00772 27-266): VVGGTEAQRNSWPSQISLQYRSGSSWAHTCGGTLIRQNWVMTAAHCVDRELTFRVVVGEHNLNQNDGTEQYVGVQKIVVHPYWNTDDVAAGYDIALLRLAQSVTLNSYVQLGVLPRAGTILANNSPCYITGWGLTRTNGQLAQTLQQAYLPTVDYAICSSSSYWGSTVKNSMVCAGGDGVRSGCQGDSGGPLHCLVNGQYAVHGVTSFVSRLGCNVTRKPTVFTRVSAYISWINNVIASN

SMILES: COc1c(O)cc2oc3cc(O)c(CC=C(C)C)c(O)c3c(=O)c2c1CC=C(C)C [Alpha-mangostin]
- pIC50 [1]: 4.40
- pIC50 [2]: 4.30
- pIC50 (mushroom tyrosinase): 3.76
- pIC50 [3]: 4.62

SMILES: CC(C)=CCc1c(O)cc2oc3cc(O)c(O)c(CC=C(C)C)c3c(=O)c2c1O [Gamma-mangostin]
- pIC50 [1]: 4.22
- pIC50 [2]: 3.81
- pIC50 (mushroom tyrosinase): 3.90
- pIC50 [3]: 3.85

SMILES: CC(C)=CCc1c(O)cc2oc3cc(O)c(O)c(CCC(C)(C)O)c3c(=O)c2c1O [Garcinone C]
- pIC50 [1]: 3.74
- pIC50 [2]: 4.31
- pIC50 (mushroom tyrosinase): 3.80
- pIC50 [3]: 4.10

SMILES: COc1c(O)cc2oc3cc(O)c(CC=C(C)C)c(O)c3c(=O)c2c1CCC(C)(C)O [Garcinone D]
- pIC50 [1]: 3.69
- pIC50 [2]: 4.30
- pIC50 (mushroom tyrosinase): 3.60
- pIC50 [3]: 3.80
